Test results published in US20120213789A1, “New Molecular Target for Treatment of Cancer” (priority 2001, published 2012).

Experiments:
[1] = test system: MLC-SV40 immortalized normal cells; assay: Dose-response kinetics of UC28 protein expression by flow cytometry; assay type: cell-based; conditions: 0.5 to 25 mM SPB
Method: Cells were grown to 70-80% confluence at 37° C. and 5% CO2 in T-75 tissue culture plastic flasks. SPB stock solution was added to final concentrations of 0.5, 5.0, 10.0, and 25.0 mM in appropriate fresh media to the cell cultures. Cells were incubated at 37° C. and 5% CO2 for 72 hours. Attached cells were then harvested using a solution of 0.05% trypsin and 0.53 mM EDTA (Invitrogen Corp.). Attached cells were then pooled with any the detached cells and washed with PBS pH 7.2. Cell numbers and percent viability were determined using Trypan blue dye exclusion and a hemacytometer. At the time of their use in an experiment the viability was usually about 85% for untreated cells and a range of about 15-70% for treated cells, with the lower viabilities found at higher SPB concentrations (Thompson C, 1995; Cory et al., 1998; van Engeland et al., 1996). UC28(C) is 2.14 mg/ml rabbit polyclonal aliquot directed against the inventors' UC28 patented biomarker developed by UCor R&D gene discovery program. The Antibody was produced against a […] (AA) synthetic peptide from the predicted AA sequence (AA 21-37) UCor, Inc. 840 Research Parkway Oklahoma City, Okla. 73104. Goat Anti-Rabbit CY5 polyclonal Fluorchrome was used as the secondary conjugate for UC28 C rabbit polyclonal antibody and a background control for UC28 C polyclonal. […]

[2] = Percent viability by Trypan blue dye exclusion after SPB treatment; assay type: cell-based; conditions: prostate cell lines, treated cells, SPB 0.5-25.0 mM, untreated cells about 85%
Method: Cells were grown to 70-80% confluence at 37° C. and 5% CO2 in T-75 tissue culture plastic flasks. SPB stock solution was added to final concentrations of 0.5, 5.0, 10.0, and 25.0 mM in appropriate fresh media to the cell cultures. Cells were incubated at 37° C. and 5% CO2 for 72 hours. Attached cells were then harvested using a solution of 0.05% trypsin and 0.53 mM EDTA (Invitrogen Corp.). Attached cells were then pooled with any the detached cells and washed with PBS pH 7.2. Cell numbers and percent viability were determined using Trypan blue dye exclusion and a hemacytometer. At the time of their use in an experiment the viability was usually about 85% for untreated cells and a range of about 15-70% for treated cells, with the lower viabilities found at higher SPB concentrations (Thompson C, 1995; Cory et al., 1998; van Engeland et al., 1996).

Question: For `O=C([O-])CCCc1ccccc1.[Na+]` [SPB, 4-Phenylbutyric Acid, Sodium Salt], which “UC28 membrane protein expression” value [1] is on record?
Answer: do not over express

Question: What about the viability at 72 h [2] of the same compound?
Answer: 15 to 70%
